Experiment [1] addresses YAP-TEAD protein interaction (His-TEAD1 (209-426) protein, Bio-YAP peptide (60-100)) (Homo sapiens, UniProt P28347). Put plainly: YAP-TEAD protein interaction HTRF experiment. It counts as binding. Conditions: His-TEAD1 (209-426) 10 nM, Bio-YAP peptide 50 nM, read-out: Activity of each compound in blocking YAP-TEAD protein interaction (grades of IC50 values). The essentials: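 His-TEAD1 (209-426) at 10 nM final was preincubated 20 min at RT with compounds (10-point 3-fold dilutions, duplicates, 1% DMSO), then Bio-YAP peptide, 10 min. Anti-His-Eu cryptate/streptavidin-XL665 added for 1 h at RT; HTRF read at ex 320 nm, Em665/Em620 ratio ×10000, IC50 from % inhibition.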
(In general: Time-resolved FRET reads energy transfer from a long-lived donor to a nearby acceptor.)

The next experiment concerns MSTO-211H cells. Put plainly: Cell proliferation inhibition experiment (CellTiter-Glo). It counts as cell-based. Conditions: 96 hours, read-out: Inhibitory activity of each compound on the proliferation of MSTO-211H cells (grades of IC50 values). The essentials: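 MSTO-211H cells (1500/well, RPMI1640 + 10% FBS) were plated overnight at 37° C, 5% CO2, then exposed in duplicate to 9 three-fold compound dilutions (DMSO ≤0.5% final) for 96 hours. Viability was read as CellTiter-Glo luminescence after 10 min at room temperature. IC50 was derived from inhibition of the CTG signal.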
Background: ATP-based viability assays read luminescence as a measure of living cells.

This passage reports IC50 results from US20250177408A1, “INHIBITOR OF INTERACTION BETWEEN YAP/TAZ AND TEAD, PREPARATION THEREOF, PHARMACEUTICAL COMPOSITION THEREOF AND USE THEREOF” (ETERN BIOPHARMA (SHANGHAI) CO., LTD., priority 2022, published 2025).

Each structure is given as a SMILES string. Read-outs that look alike come from different tables or passages of the source. A value given as a limit tells only on which side of the number the result lay.

Sequence of YAP-TEAD protein interaction (His-TEAD1 (209-426) protein, Bio-YAP peptide (60-100)) (P28347 209-426): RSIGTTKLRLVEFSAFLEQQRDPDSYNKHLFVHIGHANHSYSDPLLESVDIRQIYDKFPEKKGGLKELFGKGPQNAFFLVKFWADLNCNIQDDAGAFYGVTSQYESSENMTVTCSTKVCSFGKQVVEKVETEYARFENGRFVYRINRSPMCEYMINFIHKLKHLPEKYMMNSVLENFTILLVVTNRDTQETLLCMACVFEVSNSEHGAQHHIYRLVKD

As to `CNC(=O)c1cc2c(c(F)c1-c1c(Cl)c(F)cc3c1C[C@](c1ccccc1)([C@@H]1CCCN1)O3)Oc1c(cnn(CCOC)c1=O)O2` (atropisomer, axis not shown) [Compound 150, (S)-8-((S)-5-Chloro-6-fluoro-2-phenyl-2-((S)-pyrrolidin-2-yl)-2,3-dihydrobenzofuran-4-yl)-9-fluoro-2-(2-methoxyethyl)-N-methyl-1-oxo-1,2-dihydrobenzo [5,6][1,4]dioxo [2,3-d]pyridazine-7-carboxamide], the IC50 in experiment [1] is < 50 nM; in the experiment with MSTO-211H cells (Homo sapiens), < 200 nM.
In the case of `[2H]C([2H])([2H])n1ncc2c(c1=O)Oc1c(cc(C(=O)NC)c(-c3c(Cl)c(F)cc4c3C[C@](c3ccccc3)([C@@H]3CCCN3)O4)c1F)O2` (atropisomer, axis not shown) [Compound 151, (S)-8-((S)-5-Chloro-6-fluoro-2-phenyl-2-((S)-pyrrolidin-2-yl)-2,3-dihydrobenzofuran-4-yl)-9-fluoro-N-methyl-2-(methyl-d3)-1-oxo-1,2-dihydrobenzo[5,6][1,4]dioxo [2,3-d]pyridazine-7-carboxamide], the IC50 in experiment [1] is < 50 nM; in the experiment on MSTO-211H cells (Homo sapiens), < 200 nM.
On to `[2H]C1([2H])CC[C@]([2H])([C@@]2(c3ccccc3)Cc3c(cc(F)c(Cl)c3-c3c(C(N)=O)cc4c(c3F)Oc3c(cnn(CC(F)F)c3=O)O4)O2)N1` (atropisomer, axis not shown) [Compound 152, (S)-8-((S)-5-Chloro-6-fluoro-2-phenyl-2-((S)-pyrrolidin-2-yl-2,5,5-d3)-2,3-dihydrobenzofuran-4-yl)-2-(2,2-difluoroethyl)-9-fluoro-1-oxo-1,2-dihydrobenzo [5,6][1,4]dioxo [2,3-d]pyridazine-7-carboxamide], for which the IC50 is < 50 nM in experiment [1] and < 200 nM in the experiment with MSTO-211H cells (Homo sapiens).
Take `[2H]C1([2H])CC[C@]([2H])([C@@]2(c3ccccc3)Cc3c(cc(F)c(Cl)c3-c3c(C(N)=O)cc4c(c3F)Oc3c(cnn(CC(F)(F)F)c3=O)O4)O2)N1` (atropisomer, axis not shown) [Compound 153, (S)-8-((S)-5-Chloro-6-fluoro-2-phenyl-2-((S)-pyrrolidin-2-yl-2,5,5-d3)-2,3-dihydrobenzofuran-4-yl)-9-fluoro-1-oxo-2-(2,2,2-trifluoroethyl)-1,2-dihydroxybenzo[5,6][1,4] dioxo [2,3-d]pyridazine-7-carboxamide]: the IC50 in experiment [1] was < 50 nM; in the experiment with MSTO-211H cells (Homo sapiens) it was < 200 nM.
On to `[2H]C1([2H])CC[C@]([2H])([C@@]2(c3ccccc3)Cc3c(cc(F)c(Cl)c3-c3c(C(N)=O)cc4c(c3F)Oc3c(cnn(C5CC(F)(F)C5)c3=O)O4)O2)N1` (atropisomer, axis not shown) [Compound 154, (S)-8-((S)-5-Chloro-6-fluoro-2-phenyl-2-((S)-pyrrolidin-2-yl-2,5,5-d3)-2,3-dihydrobenzofuran-4-yl)-2-(3,3-difluorocyclobutyl)-9-fluoro-1-oxo-1,2-dihydrobenzo[5,6][1,4]dioxo [2,3-d]pyridazine-7-carboxamide], for which the figures for the IC50 (in experiment [1]; in the experiment with MSTO-211H cells (Homo sapiens)) were < 50 nM and < 200 nM, respectively.
On to `[2H]C1([2H])CC[C@]([2H])([C@@]2(c3ccccc3)Cc3c(cc(F)c(Cl)c3-c3c(C(N)=O)cc4c(c3F)Oc3c(cnn(CCC(F)(F)F)c3=O)O4)O2)N1` (atropisomer, axis not shown) [Compound 155, (S)-8-((S)-5-Chloro-6-fluoro-2-phenyl-2-((S)-pyrrolidin-2-yl-2,5,5-d3)-2,3-dihydrobenzofuran-4-yl)-9-fluoro-1-oxo-2-(3,3,3-trifluoropropyl)-1,2-dihydroxybenzo[5,6][1,4] dioxo[2,3-d]pyridazine-7-carboxamide], for which the IC50 in experiment [1] is < 50 nM; in the experiment on MSTO-211H cells (Homo sapiens), < 200 nM.
With `[2H]C1([2H])CC[C@]([2H])([C@@]2(c3ccccc3)Cc3c(cc(F)c(Cl)c3-c3c(C(=O)NC)cc4c(c3F)Oc3c(cnn(CC(F)F)c3=O)O4)O2)N1` (atropisomer, axis not shown) [Compound 156, (S)-8-((S)-5-Chloro-6-fluoro-2-phenyl-2-((S)-pyrrolidin-2-yl-2,5,5-d3)-2,3-dihydrobenzofuran-4-yl)-2-(2,2-difluoroethyl)-9-fluoro-N-methyl-1-oxo-1,2-dihydrobenzo[5,6][1,4]dioxo [2,3-d]pyridazine-7-carboxamide], the IC50 in experiment [1] is < 50 nM; in the experiment with MSTO-211H cells (Homo sapiens), < 200 nM.
Take `[2H]C1([2H])CC[C@]([2H])([C@@]2(c3ccccc3)Cc3c(cc(F)c(Cl)c3-c3c(C(=O)NC)cc4c(c3F)Oc3c(cnn(CC(F)(F)F)c3=O)O4)O2)N1` (atropisomer, axis not shown) [Compound 157, (S)-8-((S)-5-Chloro-6-fluoro-2-phenyl-2-((S)-pyrrolidin-2-yl-2,5,5-d3)-2,3-dihydrobenzofuran-4-yl)-9-fluoro-N-methyl-1-oxo-2-(2,2,2-trifluoroethyl)-1,2-dihydroxybenzo[5,6][1,4] dioxo[2,3-d]pyridazine-7-carboxamide]: the results for the IC50 (in experiment [1]; in the experiment with MSTO-211H cells (Homo sapiens)) were < 50 nM and < 200 nM, respectively.
Take `[2H]C1([2H])CC[C@]([2H])([C@@]2(c3ccccc3)Cc3c(cc(F)c(Cl)c3-c3c(C(=O)NC)cc4c(c3F)Oc3c(cnn(C5CC(F)(F)C5)c3=O)O4)O2)N1` (atropisomer, axis not shown) [Compound 158, (S)-8-((S)-5-Chloro-6-fluoro-2-phenyl-2-((S)-pyrrolidin-2-yl-2,5,5-d3)-2,3-dihydrobenzofuran-4-yl)-2-(3,3-difluorocyclobutyl)-9-fluoro-N-methyl-1-oxo-1,2-dihydrobenzo[5,6][1,4]dioxo [2,3-d]pyridazine-7-carboxamide]: the IC50 in experiment [1] is < 50 nM; with MSTO-211H cells (Homo sapiens), < 200 nM.
For the compound `[2H]C1([2H])CC[C@]([2H])([C@@]2(c3ccccc3)Cc3c(cc(F)c(Cl)c3-c3c(C(=O)NC)cc4c(c3F)Oc3c(cnn(CCC(F)(F)F)c3=O)O4)O2)N1` (atropisomer, axis not shown) [Compound 159, (S)-8-((S)-5-Chloro-6-fluoro-2-phenyl-2-((S)-pyrrolidin-2-yl-2,5,5-d3)-2,3-dihydrobenzofuran-4-yl)-9-fluoro-N-methyl-1-oxo-2-(3,3,3-trifluoropropyl)-1,2-dihydroxybenzo [5,6][1,4]dioxo [2,3-d]pyridazine-7-carboxamide], the IC50 in experiment [1] is < 50 nM; in the experiment with MSTO-211H cells (Homo sapiens) it was < 200 nM.
Take `O=C(NC1CC1)c1cc2c(c(F)c1-c1c(Cl)c(F)cc3c1C[C@](c1ccccc1)([C@@H]1CCCN1)O3)Oc1c(cnn(CC(F)F)c1=O)O2` (atropisomer, axis not shown) [Compound 160]: the IC50 in experiment [1] was < 50 nM; in the experiment with MSTO-211H cells (Homo sapiens), < 200 nM.
For `CNC[C@@]1(c2ccccc2)Cc2c(cc(F)c(Cl)c2-c2c(C(N)=O)cn3cc(C)nc3c2F)O1` (atropisomer, axis not shown) [Compound I-16, (S)-7-((S)-5-Chloro-6-fluoro-2-((methylamino)methyl)-2-phenyl-2,3-dihydrobenzofuran-4-yl)-8-fluoro-2-methylimidazo[1,2-a]pyridine-6-carboxamide], the figures for the IC50 (in experiment [1]; with MSTO-211H cells (Homo sapiens)) were < 50 nM and < 200 nM, respectively.
In the case of `CNC[C@@]1(c2ccccc2)Cc2c(cc(F)c(Cl)c2-c2c(C(N)=O)cc3c(c2F)OCCN3)O1` (atropisomer, axis not shown) [Compound I-17, (S)-7-((S)-5-Chloro-6-fluoro-2-((methylamino)methyl)-2-phenyl-2,3-dihydrobenzofuran-4-yl)-8-fluoro-3,4-dihydro-2H-benzo[b][1,4]oxazine-6-carboxamide], the IC50 in experiment [1] is < 50 nM; with MSTO-211H cells (Homo sapiens), < 200 nM.
`Cn1ncc2c(F)c(-c3c(Cl)c(F)cc4c3C[C@](c3ccccc3)([C@@H]3CCCN3)O4)c(C(N)=O)cc21` (atropisomer, axis not shown) [Compound I-28, (S)-5-((S)-5-Chloro-6-fluoro-2-phenyl-2-((S)-pyrrolidin-2-yl)-2,3-dihydrobenzofuran-4-yl)-4-fluoro-1-methyl-1H-indazole-6-carboxamide]: the IC50 was < 50 nM in experiment [1] and < 200 nM with MSTO-211H cells (Homo sapiens).
With `CCC(=O)N1CCOc2c1cc(C(N)=O)c(-c1c(Cl)c(F)cc3c1C[C@](c1ccccc1)([C@@H]1CCCN1)O3)c2F` (atropisomer, axis not shown) [Compound I-29, (S)-7-((S)-5-Chloro-6-fluoro-2-phenyl-2-((S)-pyrrolidin-2-yl)-2,3-dihydrobenzofuran-4-yl)-8-fluoro-4-propionyl-3,4-dihydro-2H-benzo[b][1,4]oxazine-6-carboxamide], the IC50 is < 50 nM in experiment [1] and 200 to 500 nM in the experiment with MSTO-211H cells (Homo sapiens).
On to `NC(=O)c1cc2cn[nH]c2c(F)c1-c1c(Cl)c(F)cc2c1C[C@](c1ccccc1)([C@@H]1CCCN1)O2` (atropisomer, axis not shown) [Compound I-30, (S)-6-((S)-5-Chloro-6-fluoro-2-phenyl-2-((S)-pyrrolidin-2-yl)-2,3-dihydrobenzofuran-4-yl)-7-fluoro-1H-indazole-5-carboxamide], for which the IC50 in experiment [1] was < 50 nM; in the experiment with MSTO-211H cells (Homo sapiens), 200 to 500 nM.
With `NC(=O)c1cc2c(c(F)c1-c1c(Cl)c(F)cc3c1C[C@](c1ccccc1)([C@@H]1CCCN1)O3)Oc1nnccc1O2` [Compound 71, (S)-8-((S)-5-Chloro-6-fluoro-2-phenyl-2-((S)-pyrrolidin-2-yl)-2,3-dihydrobenzofuran-4-yl)-9-fluorobenzo[5,6][1,4]dioxo[2,3-c]pyridazine-7-carboxamide], the IC50 in experiment [1] is < 50 nM; in the experiment with MSTO-211H cells it was 200 to 500 nM.
